Key:
[1] = system: DENV-2 D2Y98P; type: in vivo, AG129 mice
[2] = SD rat plasma
[3] = Pharmacokinetic study in SAD cohorts; type: in vivo, human; settings: South/Southeast/East Asian versus mostly Caucasian cohorts, 1000 mg
Protocol: (§1) Pharmacokinetic measurements for FIGS. 11, 12, 13, 14, and 15 were analyzed using LC-MS/MS according to the protocol described herein. Plasma samples were prepared for MS analysis by adding internal standards and extracting with 20 volumes chilled ACN. After vortex (800 rpm for 10 min) and centrifugation (4,000 rpm, 15 min, 4° C.), the supernatants (25 μL) were diluted with an equal volume of H2O, mixed and spun again. After adding internal standards, the PBMC samples (10^6 cells) were lyzed with 300 μL MeOH/H2O (70:30, v/v) and 40 mM dibutylammonium acetate (DBAA), mixed by vortex and centrifuged (12,000 rpm, 15 min, 4° C.). Aliquots of the supernatants (35 μL) were dried under nitrogen and reconstituted in H2O, then mixed and spun again. […] A binary nonlinear gradient with mobile phases A (0.1% formic acid in water) and B (0.1% formic acid in ACN) were used to elute samples at 0.8 mL/min, with a run time of 5 min. […] A binary nonlinear gradient with mobile phases A (0.001% NHr H2O, 0.18 mM DBAA in H2O) and B (10 mM N,N-dimethyl-hexylamine, 3 mM NH4OAc in ACN/H2O (50.50, v/v)) were used to elute samples at 0.5 mL/min, with a run time of 3 min. Standards in 50% MeOH were used for calibration. […] Internal standards (ISS) as described previously (Good et al., Preclinical evaluation of AT-527, a novel guanosine nucleotide prodrug with potent, pan-genotypic activity against hepatitis C virus. PLos One 15:e02271045) were used to correct for variations in recovery.
(§2) Data analysis of the pharmacokinetic data generated according to Example 21 and presented in FIGS. 11, 12, 13, 14, and 15 was analyzed according to the procedure described herein. Plasma concentrations of Compound 1 (AT-281), Compound 3 (AT-551) and Compound 6 (AT-273) were subjected to non-compartmental pharmacokinetic analysis using Phoenix WinNonlin software (version 6.3 or above, Pharsight, Mountain View, CA). The linear/log trapezoidal rule was applied in obtaining the PK parameters.

[4] = Plasma PK after single oral dose of AT-752, monkeys; type: in vivo, cynomolgus monkeys; settings: monkeys, oral 300 mg/kg or 60 mg/kg
Protocol: Male cynomolgus monkeys were administered 300 mg/kg Compound 2 (AT-752). Blood samples were collected up to 24 hrs. post dose, plasma separated and analyzed for Compound 1 (AT-281), Compound 3 (AT-551), and Compound 6 (AT-273) by LC-MS/MS. Data are express as mean+/−SD (n=3-5/time point). The x-axis is time post the dose measured in hours and the y-axis is the plasma concentration of the metabolites measured in nanomoles/mL). The experimental procedure is provided in Example 14.
Male non-naïve cynomolgus monkeys (Hainan Jingang Laboratory Animal Co. Ltd., China), at least 2 kg body weight, were individually housed during the study in stainless steel mesh cages, provided ad libitum access to RO water, fed twice daily (except on the day of dosing when they were fed once) with ˜60 g Certified Monkey Diet each feed (Beijing Vital Keao Feed Co., Ltd., Beijing, China) and given daily treats of fresh fruit. They (n=5) were administered a dose of Compound 2 (AT-752) at 300 mg/kg in 40% PEG400, 10% solutol HS15, 50% 100 mM citrate buffer, pH 4.5 (v/v) by oral gavage, and blood samples (˜0.5 mL) were collected at 1, 2, 4, 8, 12 and 24 h post dose. Plasma was separated at each time point for pharmacokinetics, and stored at −70° C. […] Separately, three monkeys were given an oral dose of Compound 2 (AT-752) as powder in capsules at 60 mg/kg ([…] (AT-281) equivalent dose of 55 mg/kg), and blood samples collected at 12, 24 and 48 h post dose.
as §1, §2

[5] = Safety study in humans (SAD and MAD cohorts); type: in vivo, human
Protocol: Safety assessments including adverse events, standard clinical laboratory tests, vital sign measurements, electrocardiograms, and physical examinations were performed.

[6] = Plasma stability, cynomolgus monkey plasma; settings: 2 μM, 37° C.
[7] = Plasma stability, human plasma; settings: 2 μM, 37° C.
[8] = MAD 750 mg BID × 4 days plus one dose Day 5, 6 patients
[9] = MAD 750 mg TID × 4 days plus one dose Day 5, 6 patients
[10] = MAD 1000 mg QD × 7 days, 6 patients
[11] = SAD 1000 mg fasting, 6 patients
[12] = SAD 1000 mg, South/Southeast/East Asian origin, 6 patients
[13] = SAD 1500 mg fasting, 6 patients

## CNc1nc(N)nc2c1ncn2[C@@H]1O[C@H](CO[P@](=O)(N[C@@H](C)C(=O)OC(C)C)Oc2ccccc2)[C@@H](O)[C@@]1(C)F [Compound 2, isopropyl ((R)-(((2R,3R,4R,5R)-5-(2-amino-6-(methylamino)-9H-purin-9-yl)-4-fluoro-3-hydroxy-4-methyltetrahydrofuran-2-yl)methoxy)(phenoxy)phosphoryl)-L-alaninate]
[1]; Day 4 to Day 9 pi, p<0.001 by t-test
  health scores versus vehicle control group: significantly better health scores
[1]; Day 6 pi, 1000 mg/kg loading, 500 mg/kg BID 7 days oral, p=0.000014 by t-test
  Viremia versus vehicle only group: significantly lower than the vehicle only group
[1]; Days 5, 7 and 8 pi, p<0.001 by t-test
  weight loss versus vehicle control mice: significantly reduced weight loss
[1]; by Day 7 pi
  spleen viral load versus control group: not statistically different
[1]; by Day 8 pi, virus still measurable in all surviving controls, p=0.0045
  Viremia: cleared in all treated animals
[1]; p=0.0004, Mantel-Cox log-rank test
  survival (Kaplan-Meier) versus vehicle control group: significantly improved the survival
[2]
  drug remaining at the first time point (10 min of incubation): no drug remaining
[3]
  pharmacokinetic ethnic sensitivity: absence of pharmacokinetic ethnic sensitivity
[4]
  unusual or adverse clinical signs: no such signs noted
[5]; [8]
  Headache, subjects reporting: 1
  Nausea, subjects reporting: 1
  Vomiting, subjects reporting: 1
[5]; [9]
  Headache, subjects reporting: 0
  Nausea, subjects reporting: 0
  Vomiting, subjects reporting: 0
[5]; [10]
  Headache, subjects reporting: 0
  Nausea, subjects reporting: 0
  Vomiting, subjects reporting: 0
[5]; SAD 250 mg fasting, 6 patients
  Headache, subjects reporting: 0
  Nausea, subjects reporting: 0
  Vomiting, subjects reporting: 0
[5]; SAD 500 mg fasting, 7 patients
  Headache, subjects reporting: 2
  Nausea, subjects reporting: 0
  Vomiting, subjects reporting: 0
[5]; SAD 500 mg fed, 7 patients
  Headache, subjects reporting: 4
  Nausea, subjects reporting: 1
  Vomiting, subjects reporting: 0
[5]; [11]
  Headache, subjects reporting: 1
  Nausea, subjects reporting: 1
  Vomiting, subjects reporting: 1
[5]; [12]
  Headache, subjects reporting: 0
  Nausea, subjects reporting: 0
  Vomiting, subjects reporting: 0
[5]; [13]
  Headache, subjects reporting: 2
  Nausea, subjects reporting: 1
  Vomiting, subjects reporting: 2
[5]; healthy subjects, SAD 250-1500 mg and MAD cohorts, oral
  tolerability: well tolerated
[5]; healthy subjects, SAD and MAD cohorts
  serious adverse events or discontinuations due to adverse events: no serious adverse events or discontinuations due to adverse events were reported
[6]
  % of starting concentration remained after 120 min of incubation: 98.2%
[7]
  % of starting concentration remained after 120 min of incubation: 93.5%

— patent US20250082656A1, “DOSAGE REGIMENS FOR TREATMENT OF DENGUE INFECTION” (Atea Pharmaceuticals, Inc., priority 2022, published 2025)
